Measured values from US4672054A, “Process for the preparation of angiotensin-II analogues substituted in the 1-, 5- and 8- positions” (Richter Gedeon Vegyeszeti Gyar Rt., priority 1984, dated 1987).
Where two headings read alike, the source gives them in different places. Where a SMILES comes first, the peptide text is derived from it. [ ]: non-standard residue; d: D form. The star is where a group is joined. Gly(cPent) = N[C@H](C(=O)O)C1CCCC1; Chg = N[C@H](C(=O)O)C1CCCCC1; Lac = C[C@H](O)C(=O)O; Glycolyl = O=C(CO)*; Sar = CNCC(=O)O

What was measured:
[1] = system: isolated rabbit aorta vessel preparate; type: cell-based
Protocol: (§1) The octapeptides of the formula (I) are purified in a manner known per se, preferably by cellulose ion exchange chromatography. As a result, compounds are generally obtained as lyophilized powders, which can be converted into the corresponding acid addition salts or complexes. The inhibiting effect of the compounds of the formula (I) on the aldosterone production and vasoconstriction was tested in in vitro experiments.
In the latter test the inhibition of vasoconstriction induced by AII is measured on isolated rabbit aorta vessel preparate [J. Pharmacol. Exp. Ther., 108, 129 (1953)].

aldosterone production = type: cell-based
Protocol: as §1

awake rats [2] = test: hypotensive activity in vivo on awake rats (modified method by Pals), AII challenge; set-up: species or system rat; conditions: peptide 1 mg/kg subcutaneously, 1.0 μg/kg AII intravenously from the fifth minute over three hours
Protocol: The hypotensive activity of the new compounds was tested in vivo on awake rats, according to the modified method by Pals [Circ. Res. 29, 664 (1971)].
The results are illustrated in FIG. 1.
At first a dose--effect curve was registered for AII on rats. The peptides were administered subcutaneously, in 1 mg/kg doses. In the fifth minute after administration and repeatedly in the next three hours 1.0 μg/kg of AII was added intravenously. The statistical evalulation was performed by variancy analysis.

awake rats [3] = test: temporary (initial) hypertensive activity on awake rats; type: in vivo, rat; conditions: administered into the jugular vein every 20 minutes
Protocol: The temporary hypertensive activity of the AII analogues was tested also on awake rats. AII analogues were administered into the jugular vein in every 20 minutes. The results were evaluated by variancy analysis. The comparative results obtained on [Sar^1, Chg^5, Lac^8 ]-AII are shown on FIG. 2.

aldosterone release = conditions: Eur. J. Clin. Pharm., 23, 7 (1982); cited from earlier work
[4] = Eur. J. Clin. Pharm., 23, 7 (1982); cited from earlier work

| Compound | vasoconstriction inhibition, pA2 [1] | inhibition of aldosterone production pA2 (aldosterone production) | other results |
| --- | --- | --- | --- |
| CC(C)[C@H](NC(=O)[C@H](CCCNC(=N)N)NC(=O)CO)C(=O)N[C@@H](Cc1ccc(O)cc1)C(=O)N[C@H](C(=O)N[C@@H](Cc1c[nH]cn1)C(=O)N1CCC[C@H]1C(=O)O[C@@H](C)C(=O)O)C1CCCCC1 [HOAc^1, CHg^5, Lac^8 --AII] (Glycolyl-RVY[Chg]HP[Lac]-OH) | 9.53 | 8.614 |  |
| CC(C)[C@H](NC(=O)[C@H](CCCNC(=N)N)NC(=O)[C@H](C)O)C(=O)N[C@@H](Cc1ccc(O)cc1)C(=O)N[C@H](C(=O)N[C@@H](Cc1c[nH]cn1)C(=O)N1CCC[C@H]1C(=O)O[C@@H](C)C(=O)O)C1CCCC1 [Lac^1, Cpg^5, Lac^8 --AII] (H-[Lac]RVY[Gly(cPent)]HP[Lac]-OH) | 8.52 | 8.392 |  |
| CC[C@H](C)[C@H](NC(=O)[C@@H]1CCCN1C(=O)[C@H](Cc1c[nH]cn1)NC(=O)[C@@H](NC(=O)[C@H](Cc1ccc(O)cc1)NC(=O)[C@@H](NC(=O)[C@H](CCCNC(=N)N)NC(=O)CON)C(C)C)[C@@H](C)CC)C(=O)O [OGly^1, Ile^8 --AII, reference compound] |  | 7.94 |  |
| CNCC(=O)N[C@@H](CCCNC(=N)N)C(=O)N[C@H](C(=O)N[C@@H](Cc1ccc(O)cc1)C(=O)N[C@H](C(=O)N[C@@H](Cc1c[nH]cn1)C(=O)N1CCC[C@H]1C(=O)N[C@@H](C)C(=O)O)C1CCCCC1)C(C)C [Sar^1, Chg^5, Ala^8 --AII, Sar^1, Chg^5, Ala^8 -AII] | 11.18 | 9.981 | duration of hypotensive activity compared with Saralasin (FIG. 1) (awake rats [2]): signicantly more prolonged hypotensive activity than Saralasin |
| CNCC(=O)N[C@@H](CCCN=C(N)N)C(=O)N[C@H](C(=O)N[C@@H](Cc1ccc(O)cc1)C(=O)N[C@H](C(=O)N[C@@H](Cc1c[nH]cn1)C(=O)N1CCC[C@H]1C(=O)O[C@@H](C)C(=O)O)C1CCCCC1)C(C)C [Sar^1, Chg^5, Lac^8 --AII] (H-[Sar]RVY[Chg]HP[Lac]-OH) |  |  | initial hypertensive activity compared with Saralasin (FIG. 2) (awake rats [3]): significantly lower initial hypertensive activity than Salarasine |
| CNCC(=O)N[C@@H](CCCNC(=N)N)C(=O)N[C@H](C(=O)N[C@@H](Cc1ccc(O)cc1)C(=O)N[C@H](C(=O)N[C@@H](Cc1c[nH]cn1)C(=O)N1CCC[C@H]1C(=O)O[C@@H](C)C(=O)O)C1CCCCC1)C(C)C [Sar^1, Chg^5, Lac^8 --AII] (H-[Sar]RVY[Chg]HP[Lac]-OH) | 11.29 | 10.390 |  |
| CNCC(=O)N[C@@H](CCCNC(=N)N)C(=O)N[C@H](C(=O)N[C@@H](Cc1ccc(O)cc1)C(=O)N[C@H](C(=O)N[C@@H](Cc1c[nH]cn1)C(=O)N1CCC[C@H]1C(=O)N[C@@H](C)C(=O)O)C1CCCC1)C(C)C [Sar^1, Cpg^5, Ala^8 --AII] | 9.42 | 9.933 |  |
| CNCC(=O)N[C@@H](CCCNC(=N)N)C(=O)N[C@H](C(=O)N[C@@H](Cc1ccc(O)cc1)C(=O)N[C@H](C(=O)N[C@@H](Cc1c[nH]cn1)C(=O)N1CCC[C@H]1C(=O)O[C@@H](C)C(=O)O)C1CCCC1)C(C)C [Sar^1, Cpg^5, Lac^8 --AII] (H-[Sar]RVY[Gly(cPent)]HP[Lac]-OH) | 11.09 | 9.649 |  |
| CC[C@H](C)[C@H](NC(=O)[C@H](Cc1ccc(O)cc1)NC(=O)[C@@H](NC(=O)[C@H](CCCNC(=N)N)NC(=O)CNC)C(C)C)C(=O)N[C@@H](Cc1c[nH]cn1)C(=O)N1CCC[C@H]1C(=O)N[C@H](C(=O)OC)[C@@H](C)CC [Sar^1, Ile^8 --AII--OMe, reference compound] |  | 8.98 |  |
| CC[C@H](C)[C@H](NC(=O)[C@H](Cc1ccc(O)cc1)NC(=O)[C@@H](NC(=O)[C@H](CCCNC(=N)N)NC(=O)CNC)C(C)C)C(=O)N[C@@H](Cc1c[nH]cn1)C(=O)N1CCC[C@H]1C(=O)O[C@@H](C)C(=O)O [Sar^1, Lac^8 --AII, reference compound] | 11.02 | 9.649 |  |
| CCOC(=O)[C@H](C)OC(=O)[C@@H]1CCCN1C(=O)[C@H](Cc1c[nH]cn1)NC(=O)[C@@H](NC(=O)[C@H](Cc1ccc(O)cc1)NC(=O)[C@@H](NC(=O)[C@H](CCCNC(=N)N)NC(=O)CNC)C(C)C)[C@@H](C)CC [Sar^1, Lac^8 --AII--OEt, reference compound] |  | 9.27 |  |
| CNCC(=O)N[C@@H](CCCN=C(N)N)C(=O)N[C@H](C(=O)N[C@@H](Cc1ccc(O)cc1)C(=O)N[C@H](C(=O)N[C@@H](Cc1cnc[nH]1)C(=O)N1CCC[C@H]1C(=O)N[C@@H](C)C(=O)O)C(C)C)C(C)C [Sar^1, Val^5, Ala^8 --AII, Saralasin, reference compound] |  |  | vasoconstriction inhibition, pA2 ([1]; AII-induced vasoconstriction, isolated rabbit aorta, pA2): 11.10; inhibition of aldosterone production pA2 (aldosterone production; in vitro, pA2): 9.634 |
| Sar^1, HMV^8 --AII [reference compound] |  |  | inhibition of aldosterone production pA2 (aldosterone production; in vitro, pA2): 10.589 |
| [Sar^1, Thr^8 ]-AII |  |  | aldosterone release inhibiting effect (aldosterone release): no aldosterone release inhibiting effect; agonistic activity [4]: small |
